{
  "source": "patent US11510931B2",
  "about": "“Compositions and methods for treating ophthalmic conditions” (MEDICON PHARMACEUTICALS, INC., priority 2016, dated 2022)",
  "key": {"MMP-9": {"tested_on": "MMP-9", "assay": "MMP-9 levels in lacrimal gland and aqueous humor of rabbits with DED (ELISA)", "assay_type": "in vivo, rabbit", "procedure": "In an in vitro assay with purified MMP-1 (collagenase I) as […] it was shown that PS inhibited collagenase activity with an IC50 of <100 nM. In cultured human conjunctiva cells, PS suppressed MMP-1 by 75%-86%. In the lacrimal glands of rabbits with DED treated with PS eye drops, PS suppressed MMP-9 levels by 27% compared to vehicle treated rabbits (2.20±0.24 vs. 1.66±0.20 ng/mg protein; p<0.05; mean±SEM)."}, "VEGF-A": {"tested_on": "VEGF-A", "assay": "Secreted VEGF in culture medium of human ovarian cancer cells (ELISA)", "assay_type": "cell-based", "conditions": "PS 1.0×IC50, 24 h", "procedure": "First, the effect of PS on VEGF production was evaluated by cultured human cancer ovarian cells, known to secrete VEGF to recruit vascular endothelial cells for angiogenesis. Therefore, VEGF is one of the most significant and direct targets in an anti-angiogenesis strategy. The experiments discovered that VEGF levels are reduced in ovarian cancer cells by PS. Secreted VEGF was assayed in the culture medium by ELISA."}, "IL-8": {"tested_on": "IL-8", "assay": "IL-8 in culture medium of human conjunctival cells (ELISA)", "assay_type": "cell-based", "procedure": "Culture media were harvested 24 h later and the levels of TGF-β, IL-6 and IL-8 were determined by ELISA. Of note, the levels of IL-1β were below the limit of detection."}, "[1]": {"assay": "Biodistribution of PS in human eyes (ex vivo)", "assay_type": "in vitro ADME", "conditions": "human eye ex vivo, 10 min contact, 60 min incubation", "procedure": "Biodistribution of PS in human eyes (ex vivo): Human cadaveric eyes were obtained through the Lions Eye Bank for Long Island, Valley Stream, NY. They were preserved on ice and used within 2 h from removal from the donors.\nThe anterior surface of the human eye (corresponding to an area slightly larger than the palpebral fissure) was brought into direct contact with a PS HP-β-CD solution (PS concentration at 0.5%, 2.0% and 3.3%) and incubated for 10 min at 37° C. The eye was then rinsed with 10% dimethylsulfoxide (DMSO) to remove residual PS from the surface of the eye and incubated in PBS for 60 min. […] At the specified times, ocular tissues were dissected and PS levels determined by HPLC. The Table below summarizes the findings."}},
  "data": [
    {"smiles": "CCOP(=O)(OCC)OCCCCOC(=O)CC1=C(C)/C(=C/c2ccc([S+](C)[O-])cc2)c2ccc(F)cc21", "note": "(stereo not shown) [PS, phosphosulindac]", "values": [
      {"measurement": "MMP-9 levels suppression compared to vehicle", "setting": "MMP-9; lacrimal glands of rabbits with DED, PS eye drops", "value": 27, "unit": "%"},
      {"measurement": "MMP-9 levels", "setting": "MMP-9; lacrimal glands of rabbits with DED, PS eye drops, mean±SEM", "value": "1.66±0.20", "unit": "ng/mg protein"},
      {"measurement": "MMP-9 levels in the ILG and the aqueous humor", "setting": "MMP-9; rabbits with DED treated with PS for 1 week", "value": "back to normal"},
      {"measurement": "VEGF-A, % inhibition", "setting": "VEGF-A; A2780", "value": 64, "unit": "%"},
      {"measurement": "VEGF-A, % inhibition", "setting": "VEGF-A; A2780ADR", "value": 77, "unit": "%"},
      {"measurement": "VEGF-A, % inhibition", "setting": "VEGF-A; A2780cis", "value": 65, "unit": "%"},
      {"measurement": "VEGF-A, % inhibition", "setting": "VEGF-A; OVCAR-3", "value": 100, "unit": "%"},
      {"measurement": "VEGF-A, % inhibition", "setting": "VEGF-A; SKOV-3", "value": 96, "unit": "%"},
      {"measurement": "IL-8 reduction", "setting": "IL-8; TNF-α-stimulated, PS 1×IC50, media at 24 h", "value": 92, "unit": "%"},
      {"measurement": "IL-8 reduction", "setting": "IL-8; unstimulated levels, PS 1×IC50", "value": 62, "unit": "%"},
      {"measurement": "PS in Aqueous", "setting": "[1]; 0.5% PS HP-β-CD solution", "value": 2.4, "unit": "µM"},
      {"measurement": "PS in Choroid", "setting": "[1]; 0.5% PS HP-β-CD solution", "value": 28.5, "unit": "µM"},
      {"measurement": "PS in Cornea", "setting": "[1]; 0.5% PS HP-β-CD solution", "value": 187.2, "unit": "µM"},
      {"measurement": "PS in Iris", "setting": "[1]; 0.5% PS HP-β-CD solution", "value": 25.6, "unit": "µM"},
      {"measurement": "PS in Lens", "setting": "[1]; 0.5% PS HP-β-CD solution", "value": 0.6, "unit": "µM"},
      {"measurement": "PS in Retina", "setting": "[1]; 0.5% PS HP-β-CD solution", "value": 2.9, "unit": "µM"},
      {"measurement": "PS in Sclera", "setting": "[1]; 0.5% PS HP-β-CD solution", "value": 381.3, "unit": "µM"},
      {"measurement": "PS in Vitreous", "setting": "[1]; 0.5% PS HP-β-CD solution", "value": 0.3, "unit": "µM"},
      {"measurement": "PS in Cornea", "setting": "[1]; 2.0% PS HP-β-CD solution", "value": 397.7, "unit": "µM"},
      {"measurement": "PS in Iris", "setting": "[1]; 2.0% PS HP-β-CD solution", "value": 34.2, "unit": "µM"},
      {"measurement": "PS in Lens", "setting": "[1]; 2.0% PS HP-β-CD solution", "value": 1.4, "unit": "µM"},
      {"measurement": "PS in Retina", "setting": "[1]; 2.0% PS HP-β-CD solution", "value": 38.7, "unit": "µM"},
      {"measurement": "PS in Sclera", "setting": "[1]; 2.0% PS HP-β-CD solution", "value": 870.9, "unit": "µM"},
      {"measurement": "PS in Aqueous", "setting": "[1]; 3.3% PS HP-β-CD solution", "value": 19.5, "unit": "µM"},
      {"measurement": "PS in Choroid", "setting": "[1]; 3.3% PS HP-β-CD solution", "value": 261.4, "unit": "µM"},
      {"measurement": "PS in Cornea", "setting": "[1]; 3.3% PS HP-β-CD solution", "value": 266.4, "unit": "µM"},
      {"measurement": "PS in Iris", "setting": "[1]; 3.3% PS HP-β-CD solution", "value": 169.3, "unit": "µM"},
      {"measurement": "PS in Lens", "setting": "[1]; 3.3% PS HP-β-CD solution", "value": 1.9, "unit": "µM"},
      {"measurement": "PS in Retina", "setting": "[1]; 3.3% PS HP-β-CD solution", "value": 48.5, "unit": "µM"},
      {"measurement": "PS in Sclera", "setting": "[1]; 3.3% PS HP-β-CD solution", "value": "2,596.6 μM"},
      {"measurement": "PS in Vitreous", "setting": "[1]; 3.3% PS HP-β-CD solution", "value": 4.3, "unit": "µM"}
    ]}
  ]
}
